Results taken from patent publication US8492391B2, “Substituted 6-(2-hydroxybenzylamino)purine derivatives, their use as medicaments and compositions containing these derivatives” (Univerzita Palackeho V Olomouci, priority 2009, dated 2013).
Read-outs that look alike come from different tables or passages of the source.

Legend:
[1] = tested on: K562 (human chronic myelogenous leukaemia); assay: Calcein AM cytotoxicity assay, K562; assay type: cell-based; conditions: read-out: Cytotoxic activity IC50 (μM) K562
Text: (§1) Cytotoxicity of the compounds is the major property determining their anticancer effect in vivo. One of the parameters used, as the basis for cytotoxicity assays, is the metabolic activity of viable cells. For example, a microtiter assay, which uses the Calcein AM, is now widely used to quantitate cell proliferation and cytotoxicity. For instance, this assay is used in drug screening programs and in chemosensitivity testing. Because only metabolically active cells cleave Calcein AM, these assays detect viable cells exclusively. The quantity of cleaved Calcein AM corresponds to the number of vital cells in the culture. We have been using the following cell lines: MCF7 (human breast adenocarcinoma), K562 (human chronic myelogenous leukaemia), HOS (human osteogenic sarcoma), HeLa (human cervical carcinoma), HL 60 (human promyelocytic leukaemia), G 361 (human malignant melanoma), CEM (human lymphoblastoid leukaemia). All cell lines were grown in DMEM medium (Gibco BRL) supplemented with 10% (v/v) fetal bovine serum and L-glutamine and maintained at 37° C. in a humidified atmosphere with 5% CO2. For cytotoxicity assays, 10^4 cells were seeded into each well of 96 well plate, allowed to stabilize for at least 2 h and then tested compounds were added at various concentrations ranging from 100 to 0.1 μM in triplicates. Three days after drug addition Calcein AM solution (Molecular Probes) was added and let to enter the cells for 1 hour. Fluorescence of viable cells was quantified using Fluoroskan Ascent (Microsystems).

[2] = tested on: HOS (human osteogenic sarcoma); assay: Calcein AM cytotoxicity assay, HOS; assay type: cell-based; conditions: read-out: Cytotoxic activity IC50 (μM) HOS
Text: as §1

CDK2/cyclin E = target: T1, CDK2/cyclin E (Homo sapiens, UniProt P24941); assay: CDK2/cyclin E kinase inhibition assay; assay type: biochemical; conditions: kinase inhibitory activity, 15 μM ATP, histone substrate
T1 construct: made in house; host or cells: Sf9 insect cells, baculovirus co-infection
Procedure: (§2) Selected compounds were tested for CDK1/cyclin B, CDK2/cyclin E, CDK5/p25, CDK7/cyclin H and CDK9/cyclin T inhibitory activity to determine the basic relationships between their structure and the inhibitory activity. Cdk/cyclin complexes were expressed in Sf9 cells co-infected with appropriate baculoviral construct. The cells were harvested 70 hours post infection in lysis buffer (50 mM Tris pH 7.4, 150 mM NaCl, 5 mM EDTA, 20 mM NaF, 1% Tween 20, protease inhibitors) for 30 min on ice and the soluble fraction was recovered by centrifugation at 14.000 g for […]. The protein extract was stored at −80° C. until use. The final point test system for kinase activity measurement was used to carry out experiments on the kinetics under linear conditions. […] ATP and tested compound in a final volume of 20 μl, all in reaction buffer: 50 mM Hepes pH 7.4, 10 mM MgCl2, 5 mM EGTA, 10 mM 2-glycerolphosphate, 1 mM NaF, 1 mM DTT and protease inhibitors. After 30 min, the incubations were stopped by adding 5% H3PO4 and then the proteins were separated by phosphocellulose binding. The measurement of kinase inhibition employed the digital imaging analyzer BAS 1800. The kinase activity was expressed as a percentage of maximum activity and the IC50 value was determined by graphic analysis. The kinase activity is expressed as a percentage of maximum activity (FIG. 1).

CDK9/cyclin T = target: T2, CDK9/cyclin T (Homo sapiens, UniProt P50750); assay: CDK9/cyclin T kinase inhibition assay; assay type: biochemical; conditions: kinase inhibitory activity, 15 μM ATP, (YSPTSPS)3 peptide substrate
T2 construct: made in house; host or cells: Sf9 insect cells, baculovirus co-infection
Procedure: as §2

[3] = tested on: MCF7 (human breast adenocarcinoma); assay: Calcein AM cytotoxicity assay, MCF7; assay type: cell-based; conditions: MCF7, read-out: Cytotoxic activity IC50 (μM) MCF7
Text: as §1

p53 = assay: p53-dependent transcription, β-galactosidase reporter in Arn8 cells; assay type: cell-based, human; parameters: key to p53 (effect): induction of p53 protein: ++: very strong; +: weak; −: no effect; conditions: for p53 (effect): induction of p53 protein: Arn8 cells stable transfected with a β-galactosidase reporter gene; for p53 (peak concentration in μM): Arn8 cells, concentration inducing maximum of β-galactosidase activity
Text: Protein p53, accumulated in nuclei upon treatment by the compounds, then leads to trans-activation of natural cell cycle inhibitor p21^WAF1, further blocking the cell cycle. […] This allows qualitative as well as quantitative measurement of CDK inhibitors-induced p53 transcriptional activity via β-galactosidase assay. Then, the effect will be verified in treated cells by immunoblotting of proteins expressed under the control of p53. β-galactosidase activity of human melanoma cell line Arn8 was determined as described. […] Alternatively, β-galactosidase activity was quantified by measuring fluorescence of methylumbelliferyl-β-D-galactopyranoside cleavage product. Cell lines established from the human breast carcinoma (MCF-7) and the human melanoma (Arn8) cell lines were cultured in Dubecco's Modified Eagle Medium (DMEM) supplemented with 10% foetal bovine serum.
Effects of prepared compounds on activation of p53 protein were analysed in human melanoma cell line Arn8. […] The total β-galactosidase activity in Arn8 cells was quantified using a fluorimetric assay.

T2 sequence (P50750 whole entry, species assumed): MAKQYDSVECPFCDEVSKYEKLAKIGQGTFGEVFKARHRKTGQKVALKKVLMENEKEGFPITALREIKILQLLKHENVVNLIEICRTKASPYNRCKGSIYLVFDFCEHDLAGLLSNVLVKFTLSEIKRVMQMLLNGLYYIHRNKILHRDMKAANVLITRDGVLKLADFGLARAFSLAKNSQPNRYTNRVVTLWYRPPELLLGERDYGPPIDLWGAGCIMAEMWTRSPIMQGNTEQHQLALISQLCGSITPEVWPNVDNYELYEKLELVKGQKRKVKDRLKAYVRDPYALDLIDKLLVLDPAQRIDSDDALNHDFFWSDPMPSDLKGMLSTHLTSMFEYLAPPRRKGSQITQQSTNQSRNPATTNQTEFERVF
T2 sequence (O60563 whole entry partner, species assumed): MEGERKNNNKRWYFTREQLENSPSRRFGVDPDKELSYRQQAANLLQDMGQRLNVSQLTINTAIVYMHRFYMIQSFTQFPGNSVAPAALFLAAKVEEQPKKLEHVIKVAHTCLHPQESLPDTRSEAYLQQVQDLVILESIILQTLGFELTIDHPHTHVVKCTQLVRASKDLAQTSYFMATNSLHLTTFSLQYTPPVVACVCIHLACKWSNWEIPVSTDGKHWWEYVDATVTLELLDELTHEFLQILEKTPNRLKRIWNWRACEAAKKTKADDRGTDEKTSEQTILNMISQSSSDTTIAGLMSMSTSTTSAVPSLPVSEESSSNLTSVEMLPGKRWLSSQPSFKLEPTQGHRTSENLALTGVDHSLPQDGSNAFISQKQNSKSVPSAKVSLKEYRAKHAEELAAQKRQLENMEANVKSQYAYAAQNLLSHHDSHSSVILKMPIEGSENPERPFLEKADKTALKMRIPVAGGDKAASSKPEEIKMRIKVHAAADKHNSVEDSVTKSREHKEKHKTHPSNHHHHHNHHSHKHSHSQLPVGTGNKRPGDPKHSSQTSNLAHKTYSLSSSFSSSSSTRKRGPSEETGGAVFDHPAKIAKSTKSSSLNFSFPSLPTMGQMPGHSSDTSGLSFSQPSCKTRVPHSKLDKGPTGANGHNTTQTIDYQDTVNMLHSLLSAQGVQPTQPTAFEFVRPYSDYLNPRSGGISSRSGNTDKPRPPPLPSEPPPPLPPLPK

| Compound | IC50 ([1]; Homo sapiens) [µM] | IC50 ([2]; Homo sapiens) [µM] | IC50 (CDK2/cyclin E) [µM] | IC50 (CDK9/cyclin T) [µM] | IC50 ([3]; Homo sapiens) [µM] | further results |
| --- | --- | --- | --- | --- | --- | --- |
| Cn1cnc2c(NCc3cc(Cl)ccc3O)nc(NC3CCCCC3N)nc21 (stereo not shown) [Compound 1] | 78 | 65 | 0.29 | 0.18 | 43 |  |
| Cn1cnc2c(NCc3cc(Cl)ccc3O)nc(NC3CCC(N)CC3)nc21 (stereo not shown) [Compound 2] | 82 | 64 | 0.27 | 0.15 | 46 |  |
| CCC(CO)Nc1nc(NCc2cc(Cl)ccc2O)c2ncn(C)c2n1 (stereo not shown) [Compound 3] | 84 | 71 | 0.3 | 0.12 | 55 |  |
| CC(C)C(CO)Nc1nc(NCc2cc(Cl)ccc2O)c2ncn(C)c2n1 (stereo not shown) [Compound 4] |  |  | 0.25 | 0.08 |  |  |
| Cn1cnc2c(NCc3cc(F)ccc3O)nc(NC3CCCCC3N)nc21 (stereo not shown) [Compound 7] | 61 | 47 | 0.26 | 0.15 | 35 |  |
| Cn1cnc2c(NCc3cc(F)ccc3O)nc(NC3CCC(N)CC3)nc21 (stereo not shown) [Compound 8] | 64 | 50 | 0.25 | 0.12 | 39 |  |
| CCC(CO)Nc1nc(NCc2cc(F)ccc2O)c2ncn(C)c2n1 (stereo not shown) [Compound 9] | 67 | 53 | 0.3 | 0.17 | 42 |  |
| COc1cccc(CNc2nc(NC3CCCCC3N)nc3c2ncn3C)c1O (stereo not shown) [Compound 31] | 60 | 45 | 0.26 | 0.19 | 36 |  |
| COc1cccc(CNc2nc(NC3CCC(N)CC3)nc3c2ncn3C)c1O (stereo not shown) [Compound 32] |  |  | 0.22 | 0.18 |  |  |
| CCC(CO)Nc1nc(NCc2cccc(OC)c2O)c2ncn(C)c2n1 (stereo not shown) [Compound 34] |  |  | 0.27 | 0.16 |  |  |
| CCn1cnc2c(NCc3cc(Cl)ccc3O)nc(NC3CCCCC3N)nc21 (stereo not shown) [Compound 47] |  |  |  |  |  | IC50 [1]: 55 µM; IC50 [2]: 41 µM; IC50 [3]: 32 µM |
| CCn1cnc2c(NCc3cc(Cl)ccc3O)nc(NC3CCC(N)CC3)nc21 (stereo not shown) [Compound 48] |  |  | 0.14 | 0.09 |  |  |
| CCC(CO)Nc1nc(NCc2cc(Cl)ccc2O)c2ncn(CC)c2n1 (stereo not shown) [Compound 50] | 58 | 44 | 0.13 | 0.12 | 38 |  |
| CCn1cnc2c(NCc3cc(F)ccc3O)nc(NC3CCC(N)CC3)nc21 (stereo not shown) [Compound 51] | 52 | 40 | 0.16 | 0.1 | 32 |  |
| CCn1cnc2c(NCc3cc(C)ccc3O)nc(NC3CCCCC3N)nc21 (stereo not shown) [Compound 59] |  |  | 0.12 | 0.05 |  |  |
| CCn1cnc2c(NCc3cccc(OC)c3O)nc(NC3CCC(N)CC3)nc21 (stereo not shown) [Compound 70] |  |  | 0.11 | 0.07 |  |  |
| CCC(CO)Nc1nc(NCc2ccc(OC)cc2O)c2ncn(CC)c2n1 (stereo not shown) [Compound 73] |  |  | 0.17 | 0.09 |  |  |
| CC(C)n1cnc2c(NCc3cc(Cl)ccc3O)nc(NC3CCCCC3N)nc21 (stereo not shown) [Compound 76] | 9.9 | 4.1 | 0.05 | 0.03 | 2.8 |  |
| CC(C)n1cnc2c(NCc3cc(Cl)ccc3O)nc(NC3CCC(N)CC3)nc21 (stereo not shown) [Compound 77] |  |  | 0.04 | 0.01 |  |  |
| CC(C)n1cnc2c(NCc3cc(Cl)ccc3O)nc(NC(C)C(C)(C)O)nc21 (stereo not shown) [Compound 82] |  |  | 0.04 | 0.01 |  |  |

| Compound | IC50 ([1]; Homo sapiens) [µM] | IC50 ([2]; Homo sapiens) [µM] | IC50 (CDK2/cyclin E) [µM] | IC50 (CDK9/cyclin T) [µM] | IC50 ([3]; Homo sapiens) [µM] | further results |
| --- | --- | --- | --- | --- | --- | --- |
| CC(C)n1cnc2c(NCc3cc(Cl)ccc3O)nc(NCCC(C)(C)O)nc21 [Compound 83] |  |  | 0.02 | 0.007 |  |  |
| CCC(CO)Nc1nc(NCc2cccc(C)c2O)c2ncn(C(C)C)c2n1 (stereo not shown) [Compound 101] |  |  |  | 0.04 |  |  |
| CCC(CO)Nc1nc(NCc2cccc(O)c2O)c2ncn(C(C)C)c2n1 (stereo not shown) [Compound 113] | 7.8 | 8.4 |  | 0.04 | 4.5 |  |
| CC(C)C(CO)Nc1nc(NCc2cccc(O)c2O)c2ncn(C(C)C)c2n1 (stereo not shown) [Compound 114] |  |  |  |  |  | p53 (effect): induction of p53 protein (p53): ++; p53 (peak concentration in μM) (p53): 12.0 µM |
| CC(C)n1cnc2c(NCc3cc(O)ccc3O)nc(NC3CCCCC3N)nc21 (stereo not shown) [Compound 121] |  |  | 0.08 | 0.07 |  |  |
| COc1cccc(CNc2nc(NCC(C)O)nc3c2ncn3C(C)C)c1O (stereo not shown) [Compound 127] |  |  | 0.08 | 0.06 |  |  |
| COc1cccc(CNc2nc(NC3CCC(O)CC3)nc3c2ncn3C(C)C)c1O (stereo not shown) [Compound 136] |  |  | 0.05 | 0.03 |  |  |
| CCC(CO)Nc1nc(NCc2ccc(OC)cc2O)c2ncn(C(C)C)c2n1 (stereo not shown) [Compound 139] |  |  | 0.09 | 0.04 |  |  |
| COc1ccc(O)c(CNc2nc(NC3CCCCC3N)nc3c2ncn3C(C)C)c1 (stereo not shown) [Compound 143] |  |  |  |  |  | IC50 [1]: 13.1 µM; IC50 [3]: 5 µM |
| NC1CCCCC1Nc1nc(NCc2cc(Cl)ccc2O)c2ncn(Cc3ccccc3)c2n1 (stereo not shown) [Compound 179] |  |  |  |  |  | IC50 [1]: 19.5 µM; IC50 [2]: 10.2 µM; IC50 [3]: 8.7 µM |
| NC1CCCCC1Nc1nc(NCc2cc(F)ccc2O)c2ncn(Cc3ccccc3)c2n1 (stereo not shown) [Compound 186] |  |  |  |  |  | IC50 [1]: 15.4 µM; IC50 [2]: 9.3 µM; IC50 [3]: 6.9 µM |
| CC[C@H](CO)Nc1nc(NCc2ccccc2O)c2ncn(C(C)C)c2n1 [OCII, olomoucine II, reference compound] |  |  |  |  |  | p53 (effect): induction of p53 protein (p53): ++; p53 (peak concentration in μM) (p53): 12.0 µM |
| CCC(CC)n1cnc2c(NCc3cc(Cl)ccc3O)nc(NC3CCCCC3N)nc21 (stereo not shown) [compound 223] |  |  | 0.08 | 0.05 |  | IC50 [1]: 17.6 µM; IC50 [2]: 6.8 µM; IC50 [3]: 4.8 µM |
| CCC(CO)Nc1nc(NCc2cc(Cl)ccc2O)c2ncn(C(CC)CC)c2n1 (stereo not shown) [compound 224] | 15.6 | 7.2 | 0.09 | 0.06 | 5.5 |  |
| CCC(CC)n1cnc2c(NCc3cc(F)ccc3O)nc(NC3CCCCC3N)nc21 (stereo not shown) [compound 226] |  |  |  |  |  | IC50 [1]: 12.4 µM; IC50 [2]: 4.3 µM; IC50 [3]: 4.1 µM |
| CCC(CC)n1cnc2c(NCc3cc(F)ccc3O)nc(NC3CCC(N)CC3)nc21 (stereo not shown) [compound 227] |  |  | 0.06 | 0.01 |  |  |
| CCC(CO)Nc1nc(NCc2cc(F)ccc2O)c2ncn(C(CC)CC)c2n1 (stereo not shown) [compound 228] | 13.2 | 6.8 | 0.07 | 0.04 | 4.6 |  |
| CCC(CO)Nc1nc(NCc2cccc(OC)c2O)c2ncn(C(CC)CC)c2n1 (stereo not shown) [compound 237] |  |  | 0.04 | 0.02 |  |  |
| CCC(CC)n1cnc2c(NCc3cccc(OC)c3O)nc(NC3CCCCC3N)nc21 (stereo not shown) [compound 238] |  |  | 0.06 | 0.04 |  |  |
| CCC(CO)Nc1nc(NCc2cc(OC)ccc2O)c2ncn(C(CC)CC)c2n1 (stereo not shown) [compound 240] |  |  | 0.1 | 0.07 |  |  |
